Experimental data: US10385024B2, “Compounds and methods for inhibiting NHE-mediated antiport in the treatment of disorders associated with fluid retention or salt overload and gastrointestinal tract disorders” (Ardelyx, Inc., priority 2012, dated 2019)

Legend:
[1] = target: T1, human NHE-3 (Homo sapiens, UniProt P48764); test: Cell-based assay of NHE-3 activity (human NHE3 inhibition assay); details: OK cells with human NHE-3 gene, BCECF pH dye, 0-30 μM test compound; for IC50: read-out: Human NHE3 pIC50 (converted)
T1 construct: expressed in transfected cells; host or cells: Opossum kidney (OK) cells (ATCC), transfected by electroporation
T1 sequence (P48764 26-834): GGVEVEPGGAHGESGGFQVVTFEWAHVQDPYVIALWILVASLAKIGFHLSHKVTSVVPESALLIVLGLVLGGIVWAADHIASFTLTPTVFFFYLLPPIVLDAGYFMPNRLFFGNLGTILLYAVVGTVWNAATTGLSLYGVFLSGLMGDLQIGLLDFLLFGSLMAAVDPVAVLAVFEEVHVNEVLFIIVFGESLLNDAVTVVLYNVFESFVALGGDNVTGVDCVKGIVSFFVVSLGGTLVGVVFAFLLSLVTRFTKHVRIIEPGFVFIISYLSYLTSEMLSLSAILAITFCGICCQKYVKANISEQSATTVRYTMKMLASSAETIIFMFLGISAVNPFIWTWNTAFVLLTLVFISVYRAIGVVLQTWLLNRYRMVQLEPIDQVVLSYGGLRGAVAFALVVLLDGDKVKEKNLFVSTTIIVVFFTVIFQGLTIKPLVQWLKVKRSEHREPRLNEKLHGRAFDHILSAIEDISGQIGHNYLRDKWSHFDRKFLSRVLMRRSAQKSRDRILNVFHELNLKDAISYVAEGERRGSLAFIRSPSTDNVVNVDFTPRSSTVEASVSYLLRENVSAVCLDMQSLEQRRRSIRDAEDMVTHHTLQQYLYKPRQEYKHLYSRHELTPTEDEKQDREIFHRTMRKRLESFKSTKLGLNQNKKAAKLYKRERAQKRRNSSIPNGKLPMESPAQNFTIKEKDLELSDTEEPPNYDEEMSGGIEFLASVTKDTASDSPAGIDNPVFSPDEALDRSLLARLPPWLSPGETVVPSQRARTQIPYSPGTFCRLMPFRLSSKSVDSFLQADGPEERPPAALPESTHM
Outline: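 Opossum kidney cells electroporated with rat or human NHE-3, loaded with 5 μM BCECF-AM in NH4Cl-HEPES pH 7.4 for 30 min at RT, then acidified 10 min in Na+-free choline HEPES. Na+-dependent pH recovery rates from BCECF fluorescence, averaged over ≥2 replicates, gave pIC50.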

[2] = Plasma PK; assay type: in vivo, Sprague-Dawley rats; details: Sprague-Dawley; rat plasma, oral gavage, nominal dose 30 mg/kg, mean of n=3, sampling 0.5-4 h
Protocol: Sprague-Dawley rats (n=3) were dosed with test compounds by oral gavage. Blood was collected at 0.5, 1, 2 and 4 h via retro-orbital bleeds and processed to plasma using K2EDTA as an anticoagulant. Plasma samples were treated with acetonitrile containing an internal standard and precipitated proteins were removed by centrifugation. Supernatants were analyzed by LC-MS/MS and compound concentrations were determined by interpolation from a calibration curve prepared in plasma. Accurate recovery of quality control samples were confirmed to accept each analytical run.

[3] = Pharmacokinetic evaluation in bile; assay type: in vivo, Sprague-Dawley rats; details: bile duct cannulated rats, oral gavage, nominal dose 30 mg/kg, bile collected over 24 h, mean of n=3
Protocol: Bile duct cannulated (BDC) Sprague-Dawley rats were dosed with test compounds by oral gavage and a single aliquot of bile was collected via cannula over the 24 h following dosing. Bile samples were treated with acetonitrile and precipitated proteins were removed by centrifugation. Some compounds required liquid-liquid extraction using MTBE. After centrifugation, samples were diluted as appropriate in mobile phase and analyzed by LC-MS/MS. The concentrations of compounds in bile were determined by interpolation from a standard calibration curve prepared in rat bile from untreated BDC rats. Accurate recovery of quality control samples was confirmed to accept each analytical run. Concentration in bile is reported in nM and represents the mean result from n=3 rats.

## CN1Cc2c(Cl)cc(Cl)cc2[C@H](c2cccc(S(=O)(=O)NCCOCCOCCNC(=O)CCC(N)(CCC(=O)NCCOCCOCCNS(=O)(=O)c3cccc([C@@H]4CN(C)Cc5c(Cl)cc(Cl)cc54)c3)CCC(=O)NCCOCCOCCNS(=O)(=O)c3cccc([C@@H]4CN(C)Cc5c(Cl)cc(Cl)cc54)c3)c2)C1 [Example 2, 4-amino-N^1,N^7-bis(2-(2-(2-(3-((S)-6,8-dichloro-2-methyl-1,2,3,4-tetrahydroisoquinolin-4-yl)phenylsulfonamido)ethoxy)ethoxy)ethyl)-4-(3-(2-(2-(2-(3-((S)-6,8-dichloro-2-methyl-1,2,3,4-tetrahydroisoquinolin-4-yl)phenylsulfonamido)ethoxy)ethoxy)ethylamino)-3-oxopropyl)heptanediamide]
[1]
  IC50: < 0.1 µM
[2]
  AUC: < 0.012 µg·h/mL
  Cmax: < 4 ng/mL
[3]
  Concentration in Bile: 0.004 µM

## CN1Cc2c(Cl)cc(Cl)cc2[C@H](c2cccc(S(=O)(=O)NCCOCCOCCNC(=O)CCC(CCC(=O)NCCOCCOCCNS(=O)(=O)c3cccc([C@@H]4CN(C)Cc5c(Cl)cc(Cl)cc54)c3)(CCC(=O)NCCOCCOCCNS(=O)(=O)c3cccc([C@@H]4CN(C)Cc5c(Cl)cc(Cl)cc54)c3)NC(=O)NCCS(=O)(=O)O)c2)C1 [Example 3]
[1]
  IC50: < 0.1 µM
[3]
  Concentration in Bile: 0.01 µM

## CN1Cc2c(Cl)cc(Cl)cc2[C@H](c2cccc(S(=O)(=O)NCCOCCOCCNC(=O)CCC(CCC(=O)NCCOCCOCCNS(=O)(=O)c3cccc([C@@H]4CN(C)Cc5c(Cl)cc(Cl)cc54)c3)(CCC(=O)NCCOCCOCCNS(=O)(=O)c3cccc([C@@H]4CN(C)Cc5c(Cl)cc(Cl)cc54)c3)NC(=O)COCC(=O)O)c2)C1 [Example 6, 1-(3-((S)-6,8-dichloro-2-methyl-1,2,3,4-tetrahydroisoquinolin-4-yl)phenylsulfonamido)-13,13-bis(3-(2-(2-(2-(3-((S)-6,8-dichloro-2-methyl-1,2,3,4-tetrahydroisoquinolin-4-yl)phenylsulfonamido)ethoxy)ethoxy)ethylamino)-3-oxopropyl)-10,15-dioxo-3,6,17-trioxa-9,14-diazanonadecan-19-oic Acid]
[1]
  IC50: < 0.1 µM
[3]
  Concentration in Bile: 0.021 µM

## CN1Cc2c(Cl)cc(Cl)cc2[C@H](c2cccc(S(=O)(=O)NCCOCCOCCNC(=O)CCC(CCC(=O)NCCOCCOCCNS(=O)(=O)c3cccc([C@@H]4CN(C)Cc5c(Cl)cc(Cl)cc54)c3)(CCC(=O)NCCOCCOCCNS(=O)(=O)c3cccc([C@@H]4CN(C)Cc5c(Cl)cc(Cl)cc54)c3)NC(=O)NC(CO)(CO)CO)c2)C1 [Example 11, N^1,N^7-bis(2-(2-(2-(3-((S)-6,8-dichloro-2-methyl-1,2,3,4-tetrahydroisoquinolin-4-yl)phenylsulfonamido)ethoxy)ethoxy)ethyl)-4-(3-(2-(2-(2-(3-((S)-6,8-dichloro-2-methyl-1,2,3,4-tetrahydroisoquinolin-4-yl)phenylsulfonamido)ethoxy)ethoxy)ethylamino)-3-oxopropyl)-4-(3-(1,3-dihydroxy-2-(hydroxymethyl)propan-2-yl)ureido)heptanediamide]
[1]
  IC50: 0.1 to 10 µM

## CN(C)CC(=O)NC(CCC(=O)NCCOCCOCCNS(=O)(=O)c1cccc([C@@H]2CN(C)Cc3c(Cl)cc(Cl)cc32)c1)(CCC(=O)NCCOCCOCCNS(=O)(=O)c1cccc([C@@H]2CN(C)Cc3c(Cl)cc(Cl)cc32)c1)CCC(=O)NCCOCCOCCNS(=O)(=O)c1cccc([C@@H]2CN(C)Cc3c(Cl)cc(Cl)cc32)c1 [Example 14, N1,N7-bis(2-(2-(2-(3-((S)-6,8-dichloro-2-methyl-1,2,3,4-tetrahydroisoquinolin-4-yl)phenylsulfonamido)ethoxy)ethoxy)ethyl)-4-(3-(2-(2-(2-(3-((S)-6,8-dichloro-2-methyl-1,2,3,4-tetrahydroisoquinolin-4-yl)phenylsulfonamido)ethoxy)ethoxy)ethylamino)-3-oxopropyl)-4-(2-(dimethylamino)acetamido)heptanediamide]
[1]
  IC50: < 0.1 µM
[3]
  Concentration in Bile: 0.028 µM

## CN1Cc2c(Cl)cc(Cl)cc2[C@H](c2cccc(S(=O)(=O)NCCOCCOCCNC(=O)CCC(CCC(=O)NCCOCCOCCNS(=O)(=O)c3cccc([C@@H]4CN(C)Cc5c(Cl)cc(Cl)cc54)c3)(CCC(=O)NCCOCCOCCNS(=O)(=O)c3cccc([C@@H]4CN(C)Cc5c(Cl)cc(Cl)cc54)c3)NC(=O)NCCN3CCOCC3)c2)C1 [Example 17, N^1,N^7-bis(2-(2-(2-(3-((S)-6,8-dichloro-2-methyl-1,2,3,4-tetrahydroisoquinolin-4-yl)phenylsulfonamido)ethoxy)ethoxy)ethyl)-4-(3-(2-(2-(2-(3-((S)-6,8-dichloro-2-methyl-1,2,3,4-tetrahydroisoquinolin-4-yl)phenylsulfonamido)ethoxy)ethoxy)ethylamino)-3-oxopropyl)-4-(3-(2-morpholinoethyl)ureido)heptanediamide]
[1]
  IC50: < 0.1 µM

## CN1Cc2c(Cl)cc(Cl)cc2[C@H](c2cccc(S(=O)(=O)NCCOCCOCCNC(=O)CCC(CCC(=O)NCCOCCOCCNS(=O)(=O)c3cccc([C@@H]4CN(C)Cc5c(Cl)cc(Cl)cc54)c3)(CCC(=O)NCCOCCOCCNS(=O)(=O)c3cccc([C@@H]4CN(C)Cc5c(Cl)cc(Cl)cc54)c3)NC(=O)CCCC(=O)O)c2)C1 [Example 36]
[1]
  Human NHE3 pIC50: C (C NHE3 pIC50 > 7)
[3]
  Concentration in Bile: 0.017 µM

## CN1Cc2c(Cl)cc(Cl)cc2[C@H](c2cccc(S(=O)(=O)NCCOCCOCCNC(=O)CCC(CCC(=O)NCCOCCOCCNS(=O)(=O)c3cccc([C@@H]4CN(C)Cc5c(Cl)cc(Cl)cc54)c3)(CCC(=O)NCCOCCOCCNS(=O)(=O)c3cccc([C@@H]4CN(C)Cc5c(Cl)cc(Cl)cc54)c3)NC(=O)CCC(=O)O)c2)C1 [Example 40]
[1]
  Human NHE3 pIC50: C (C NHE3 pIC50 > 7)
[3]
  Concentration in Bile: 0.023 µM

## CN1Cc2c(Cl)cc(Cl)cc2[C@H](c2cccc(S(=O)(=O)NCCOCCOCCNC(=O)NCCCN(CCCNC(=O)NCCOCCOCCNS(=O)(=O)c3cccc([C@@H]4CN(C)Cc5c(Cl)cc(Cl)cc54)c3)CCCNC(=O)NCCOCCOCCNS(=O)(=O)c3cccc([C@@H]4CN(C)Cc5c(Cl)cc(Cl)cc54)c3)c2)C1 [Example 43, (S)—N,N′-(15-(1-(3-((S)-6,8-dichloro-2-methyl-1,2,3,4-tetrahydroisoquinolin-4-yl)phenylsulfonamido)-10-oxo-3,6-dioxa-9,11-diazatetradecan-14-yl)-10,20-dioxo-3,6,24,27-tetraoxa-9,11,15,19,21-pentaazanonacosane-1,29-diyl)bis(3-((S)-6,8-dichloro-2-methyl-1,2,3,4-tetrahydroisoquinolin-4-yl)benzenesulfonamide)]
[1]
  IC50: < 0.1 µM
[3]
  Concentration in Bile: 0.006 µM

## CN1Cc2c(Cl)cc(Cl)cc2[C@H](c2cccc(S(=O)(=O)NCCOCCOCCN(C)C(=O)NCCCN(CCCNC(=O)N(C)CCOCCOCCNS(=O)(=O)c3cccc([C@@H]4CN(C)Cc5c(Cl)cc(Cl)cc54)c3)CCCNC(=O)N(C)CCOCCOCCNS(=O)(=O)c3cccc([C@@H]4CN(C)Cc5c(Cl)cc(Cl)cc54)c3)c2)C1 [Example 55]
[1]
  Human NHE3 pIC50: C (C NHE3 pIC50 > 7)

## CN1Cc2c(Cl)cc(Cl)cc2[C@H](c2cccc(S(=O)(=O)NCCOCCOCCNC(=O)NCCCC(N)(CCCNC(=O)NCCOCCOCCNS(=O)(=O)c3cccc([C@@H]4CN(C)Cc5c(Cl)cc(Cl)cc54)c3)CCCNC(=O)NCCOCCOCCNS(=O)(=O)c3cccc([C@@H]4CN(C)Cc5c(Cl)cc(Cl)cc54)c3)c2)C1 [Example 62]
[1]
  Human NHE3 pIC50: C (C NHE3 pIC50 > 7)
[3]
  Concentration in Bile: 0.007 µM

## CN1Cc2c(Cl)cc(Cl)cc2[C@H](c2cccc(S(=O)(=O)NCCOCCOCCNC(=O)NCCCC(CCCNC(=O)NCCOCCOCCNS(=O)(=O)c3cccc([C@@H]4CN(C)Cc5c(Cl)cc(Cl)cc54)c3)(CCCNC(=O)NCCOCCOCCNS(=O)(=O)c3cccc([C@@H]4CN(C)Cc5c(Cl)cc(Cl)cc54)c3)NC(=O)NC[C@H](O)[C@@H](O)[C@H](O)[C@H](O)CO)c2)C1 [Example 65]
[1]
  Human NHE3 pIC50: C (C NHE3 pIC50 > 7)
